According to patent publication US20030153575A1, “Tetracyclic diketopiperazine compounds as pdev inhibitors” (priority 2002, published 2003):

Experiments:
[1] = molecular target: human recombinant PDE5 (Homo sapiens, UniProt O76074); assay: Inhibitory effect on cGMP-PDE (PDE5 IC50); assay type: biochemical; conditions: in vitro, human recombinant PDE5, 0.15 μM 8-[H3]-cGMP, 30 min incubation
Method: The compounds of structural formula (I) were tested for an ability to inhibit PDE5. The ability of a compound to inhibit PDE5 activity is related to the IC50 value for the compound, i.e., the concentration of inhibitor required for 50% inhibition of enzyme activity. The IC50 value for compounds of structural formula (I) were determined using recombinant human PDE5.
cGMP-PDE activity of compounds of the present invention was measured using a one-step assay adapted from Wells et al., Biochim. Biophys. Acta, […], 430 (1975). The reaction medium contained 50 mM Tris-HCl, pH 7.5, 5 mM magnesium acetate, 250 μg/ml 5′-Nucleotidase, 1 mM EGTA, and 0.15 μM 8-[H^3]-cGMP. Unless otherwise indicated, the enzyme used was a human recombinant PDE5 (ICOS Corp., Bothell, Wash.).
Compounds of the invention were dissolved in DMSO finally present at 2% in the assay.

melting point | IC50 [1] | SMILES
250.5 to 256.6 °C | 45 nM | CN1CC(=O)N2[C@H](c3ccc(O)c(O)c3)c3[nH]c4ccccc4c3C[C@@H]2C1=O [Example 1, (6R,12aR)-6-(3,4-Dihydroxyphenyl)-2-methyl-2,3,6,7,12,12a-hexahydropyrazino[1′,2′:1,6]-pyrido[3,4-b]indole-1,4-dione]
288.2 to 292.2 °C | 230 nM | COc1cc([C@@H]2c3[nH]c4ccccc4c3C[C@@H]3C(=O)N(C)CC(=O)N23)ccc1O [Example 2, (6R,12aR)-6-(4-Hydroxy-3-methoxyphenyl)-2-methyl-2,3,6,7,12,12a-hexahydropyrazino[1′,2′:1,6]-pyrido[3,4-b]indole-1,4-dione]
